Here are results for 91 molecules from a melting point compilation (Tetko et al.; mined from patent text by program, amines drawn as free bases though some values may be those of a salt).

The melting point is the temperature, or range, at which the solid turns liquid. In turn, `CCCCCC(CC(=O)O)c1cc(C(=O)OC)c(OC)cc1OC` (stereo unspecified) gave a melting point of 106 to 107 °C.
Next, `CC(=O)OC1CSC(Oc2cccc(C#N)c2)C(OC(C)=O)C1OC(C)=O` (stereo unspecified): 148 to 151 °C; `CCOC(=O)C1(F)C(=O)NC(=O)NC1N1CCCCC1` (stereo unspecified): 149 to 150 °C; `c1cc2cc(-c3cnc(O[C@H]4CCN5CCC[C@@H]4C5)nc3)ccc2[nH]1`: 195 to 199 °C.
For `COc1cc(Nc2nccc(-c3ccc(NCCN)nc3)n2)cc(OC)c1OC`, the melting point was 117 to 118 °C.
Next, `C#CCC1CC2C(CCC3(C)C(=O)CCC23)C2CCC(=O)C=C12` (stereo unspecified): 186 to 188 °C.
Next, `O=C1[C@H]2CCC[C@H]2N(C(=O)CCCCBr)c2ccccc2N1Cc1ccccc1` (relative stereo): 134 to 135 °C; `CN(C)CCNC(=O)c1cccc2cc[nH]c12`: 100 to 102 °C.
Next, `Cc1nc(N)c(C#N)c(N2CCc3ccccc3CC2)n1`: above 200 °C; `Nc1c(SC(F)(F)F)c(C(=O)NC2CC2)nn1-c1c(Cl)cc(C(F)(F)F)cc1Cl`: 193 °C; `COc1cc2c(Nc3ccc(Cl)cc3F)c(C#N)cnc2c(OC)c1OC`: 166 to 168 °C.
On to `CCCCCCCCCCCCN(CCCCCCCCCCCC)c1ccccc1C1=c2ccc(=C3C(=O)c4ccccc4C3=O)cc2OC1=O`, for which the melting point turned out to be 155 °C.
Next, `COc1ccc(C(CSc2ccccc2N)C(=O)O)cc1` (stereo unspecified): 118 °C; `COc1ccc2ncc(N)c(Nc3ccccc3Cl)c2c1`: 120 to 123 °C.
On to `Cn1ccnc1C(=O)c1[nH]c2ccc(Cl)cc2c1CC(=O)O`, for which the melting point lay within 230 to 233 °C.
Next, `COc1cc(OC)c(F)c(NCc2ccccc2)c1F`: 65 to 66 °C; `CCCCc1nnc(C(=O)N(C)Cc2ccccc2)n1Cc1ccc(-c2ccccc2-c2nnn[nH]2)cc1`: above 95 °C; `CCCCc1nc(CCNC(=O)OC(C)(C)C)c[nH]1`: 118 to 120 °C.
`O=C(NCC(=O)N(c1ccccc1)c1ccccc1)Nc1cccc(Cl)c1Cl` displayed a melting point of 210 °C.
Next, `C[C@@H](n1ccn(-c2ccc(OC(F)(F)C(F)F)cc2)c1=O)[C@@]1(c2ccc(F)cc2F)CO1`: 117 to 118 °C; `Cc1cc(NC(=O)c2cccc(CCc3cc(Nc4ccccc4)n[nH]3)c2)ccc1C(C)C`: 150 to 151 °C; `S=C1N=c2ccc(OCCN3CCC(Cc4ccc(Cl)cc4)CC3)cc2=N1`: 291 to 293 °C.
Next, `O=C(Nc1cccnn1)N1CCN(c2nccc(-c3ccc(F)cc3F)n2)CC1`: 184 to 185 °C; `Cc1cc(C)c2cc(-c3ccccc3)c(=O)n(CCN(C)C)c2n1`: 135 to 137 °C.
Next, `CC(C)N1CCC(C(=O)OC2c3ccccc3C(=O)N2c2ccc3ccc(Cl)nc3n2)CC1` (stereo unspecified): 184 °C; `CC1(O)CC(=O)OC(C=Cc2ccc(OCc3ccccc3)cc2)C1` (stereo unspecified): 155 to 156 °C.
Molecule `COc1c(N2C[C@H]3CC=C[C@@]3(N)C2)c(F)cc2c(=O)c(C(=O)O)cn([C@@H]3C[C@@H]3F)c12` yielded a melting point of 206 to 208 °C.
Next, `Cc1cc(C)c(N2CCCCC2=O)c(Cl)c1`: 108 to 109 °C; `CC(C)N(C(=O)C(F)(F)F)C(C#N)c1ccc(Cl)cc1` (stereo unspecified): 78.5 to 79.5 °C; `COC(=O)C1CCC2C3CCC4CC(O)C(OC)CC4(C)C3C(=O)CC12C` (stereo unspecified): 170 to 182 °C.
Next, `COC(=O)C1=C(C)NC(C)=C(C(=O)OCCCOc2ccc(CCO)cc2)C1c1cccc([N+](=O)[O-])c1` (stereo unspecified): below 50 °C; `CCCCNC(=O)NS(=O)(=O)c1ccccc1S(=O)(=O)N(C)C(F)(F)C(F)F`: 146 to 152 °C.
With `CC(=O)Oc1coc(-c2cccc(N)c2)cc1=O`, the melting point lay in the range of 127 to 129 °C.
Next, `O=C(NCc1ccc(Cl)cc1)c1cnc2c(F)cc(-c3nccs3)cc2c1O`: 296 to 298 °C; `CCC(=O)Nc1nc(CN2CCC(OC(c3ccccc3)c3ccccc3)CC2)cs1`: 86 to 88 °C; `Nc1c(F)c(F)cc(F)c1[N+](=O)[O-]`: 66 °C.
Next, `O=P(ONc1ccccc1)(ONc1ccccc1)Oc1ccccc1`: 176 to 178 °C.
Next, `COc1cc2cc(C)sc2c(Cl)c1Cl`: 113 to 114 °C; `CCC(=O)NC1=C(OCCOC)C(=O)c2ccccc2C1=O`: 116 to 117 °C.
`COC(=O)C1(CCCCl)Oc2ccccc2CCC1O` (stereo unspecified) gave a melting point of 107 to 109 °C.
Next, `CCn1c(=O)c2[nH]c(/C=C/c3cccc(C(F)(F)F)c3)nc2n(CC)c1=O`: above 270 °C; `CN1C(=O)C(C)(C)C(=O)N(C)c2cc(C(=O)O)ccc21`: above 275 °C; `Cc1nc(C(=O)NCCO[N+](=O)[O-])co1`: 106 to 108 °C.
`CC12CCCc3cc(NC(=O)c4ccc(C(=O)O)cn4)cc(c31)CCC2` yielded a melting point of 212 to 213 °C.
As for `CCNS(=O)(=O)c1ccc(C(O)c2ccc3c(c2)C(C)(C)CCC3(C)C)cc1` (stereo unspecified), the melting point came to 175 °C.
With `CN1CCN(c2ccc3ccccc3n2)CC1`, the melting point lay within 110 to 112 °C.
Next, `CCCCC(CC)Cn1c2ccc(Br)cc2c2cc(Br)ccc21` (stereo unspecified): 62.4 to 63.6 °C; `COC(=O)c1cc(I)c[nH]1`: 77 to 78 °C.
`COC(=O)c1ccc2oc(CCc3cc4cc(C(=O)OC)ccc4o3)cc2c1`: the melting point lay in the range of 165 to 167 °C.
Next, `COC(C)(C)CN1CCC(CNC(=O)c2cc(Cl)c(N)n3cc(C)nc23)CC1`: 211 °C; `Cc1cc(Cl)ccc1N1CCCN(CC(C)C)C1=S`: 88 to 90 °C; `N#CC1CCc2c([nH]c3ccc(Cl)cc23)C1` (stereo unspecified): 181 to 182 °C.
Molecule `Cc1ccc(C)n1-c1ccc([C@@H](O)CN2C(=O)c3ccccc3C2=O)cn1` returned a melting point of 167 to 170 °C.
Next, `COc1ccc(CNc2ncccc2C(=O)Nc2cccc(C(F)(F)F)c2)cn1`: 185 °C; `Cc1oc(-c2ccccc2)nc1C(=O)COc1ccc(C=C2SC(=O)NC2=O)cc1`: 244 to 245 °C; `COC(=O)[C@@H](N=[N+]=[N-])[C@@H](O)c1ccccc1`: 40 to 41 °C.
`O=C(c1cc(Cl)ccc1NC(=O)C(Cl)(Cl)Cl)C1CCCCC1` yielded a melting point of 93 to 93.5 °C.
`CN1CCN(C)c2c(cccc2[N+](=O)[O-])C1=O` displayed a melting point of 146 to 147 °C.
On to `Nc1c(F)c(-c2ccc(Cl)cc2)nc(C=O)c1Cl`, for which the melting point was in the range of 166 to 169 °C.
Next, `CCOC(=O)c1cc2c(nc(C)n2C)c2c1CCC(OC)(c1ccccc1C)O2` (stereo unspecified): 198 °C.
Next, `CCOC(=O)C(=O)Nc1ccncc1`: 110 to 113 °C; `O=C(c1ccc2nc[nH]c(=O)c2c1)c1ncc2ccccn12`: 289 °C.
Next, `Cc1ccc2cccc(OCc3cc(N(C)C(=O)CN)ccc3Cl)c2n1`: 82 to 87 °C; `COCc1cccc(C(C#N)c2nc(OC)cc(OC)n2)c1[N+](=O)[O-]` (stereo unspecified): 112 to 113 °C; `COc1cc2c(cc1OC)OCC(C(=O)O)=C2`: 225 to 228 °C.
Molecule `CN(C)C(c1ccccc1)c1cc(C(C)(C)C)cc(C(C)(C)C)c1O` (stereo unspecified) displayed a melting point of 120 to 123 °C.
Next, `COc1ccc(-c2nc(C(F)F)oc2-c2ccc(OCCNC(N)=O)cc2)cc1`: 146 to 149 °C; `CS(=O)(=O)NC1Cc2ccc(C(=O)CCCCCl)cc2C1` (stereo unspecified): 71 to 72 °C; `CCCOc1ccc(S(C)(=O)=O)cc1-c1nc2c(CC)n[nH]c2c(=O)[nH]1`: 276 to 277 °C.
Next, `OC(CN1CCNC1=S)c1ccccn1` (stereo unspecified): 120 °C; `CC(C)CCNC(=O)c1ccccc1-c1ccccc1CNS(=O)(=O)c1ccc(F)cc1`: 149 °C; `CCOC(=O)C1=C(C)NC(CN(C)C)=C(C(=O)OCC)C1c1ccccc1Br` (stereo unspecified): 142 to 143 °C.
Next, `O=C(O)CCCCCCCCn1nc(-c2ccccc2)c(-c2ccccc2)n1`: 84 to 85 °C.
As to `CC1COc2c(N3CCC(NC(=O)OC(C)(C)C)C3)c(F)cc3c(=O)n(N)c(=O)n1c23` (stereo unspecified), the melting point was in the range of 114 to 116 °C.
Next, `O=C(O)CC1(CCl)OCCO1`: 64 to 65 °C; `Cc1nnc(CNC(=O)CN2C(=O)c3ccccc3C2=O)n1-c1ccc(Cl)cc1C(=O)c1ccccc1`: 251 to 253 °C.
Next, `CCCCCCCCCCc1nnnn1CC(=O)O`: 104 to 106 °C; `C[C@H](c1ccccc1)n1c(O)nc2c(N)nc3ccccc3c21`: above 250 °C.
Next, `Cc1cc(Oc2ccc3nc(COc4ccc(CC5SC(=O)NC5=O)cc4)n(C)c3c2)cc(C)c1NC(=O)Nc1ccc(C(F)(F)F)cc1` (stereo unspecified): 206 to 208 °C; `CC(C)(C)C(NC(=O)COc1ccccc1)Nc1c(Nc2cccnc2Cl)c(=O)c1=O` (stereo unspecified): 220 to 221 °C; `CON=C(Nc1nc(OC)nc(OC)n1)NS(=O)(=O)c1ccccc1S(=O)(=O)OC`: 148 to 150 °C.
In turn, `C=CCn1c(SCCF)n[nH]c1=O` showed a melting point of 65 °C.
Next, `CN(C)C(=O)c1nc2cnc3ccccc3c2[nH]1`: 284 to 286 °C; `Cc1ccc2nc(N3CCN(c4ncccc4Cl)CC3)[nH]c2c1`: 258 to 259 °C; `Cc1ccc([N+](=O)[O-])cc1Nc1cccc(Br)c1`: 114 to 116 °C.
Next, `S=c1cc(-c2cnccn2)ss1`: 196 °C.
Turning to `CCOC(=O)C1(CBr)C=CC=CC1S(=O)(=O)NC(C)(C)C` (stereo unspecified), the melting point lay within 74 to 75 °C.
Next, `Oc1ccc(-c2cccc(F)c2F)cc1`: 132 to 134 °C; `C#CCNC(=O)c1ncn2c1CN(C)C(=O)c1sccc1-2`: 275 to 277 °C.
Next, `CC(C)Nc1n[nH]c2nc(Oc3ccc(F)cc3F)ncc12`: 211 to 214 °C; `Cc1nc2n(c1CCN(C)C)CCCC2OCc1ccccc1` (stereo unspecified): 68 to 70 °C.
